≈ marks a conversion by molar mass, not a printed value. Read-outs that look alike come from different tables or passages of the source.
Columns and labels:
[1] = set-up: method as in PMID 18512987, PMID 19661306; conditions: previously reported; cited from earlier work
ICR mice = assay: Acute toxicity (LD50) in ICR mice; format: in vivo; conditions: mortality within 14 days
Protocol: (§1) The acute toxicity of the compounds was evaluated using six Imprinting Control Region (ICR) mice per groups at 8 to 12 weeks of age, with an average body weight of 25.6 g. The animals were assigned equally into 4 groups labeled as vehicle (dH2O), high dose (20 g/kg), medium dose (10 g/kg) and low dose (5 g/kg) of the compounds. Prior to administration, the animals were fasted (food but not water) overnight and for 3 to 4 h after compounds administration to eliminate any food inside the gastrointestinal tract that might complicate absorption of the test substance. […] Animals were euthanized by CO2 asphyxiation on 15th day, and serum biochemical and histological (liver and kidney) parameters were determined following the standard method. The mortality of the mice were recorded within 14 days and used to calculate the LD50 for each compound. The mice used were housed in specific pathogen free facility at the University of Malaya. This work was designed to minimize animal suffering and number of animals used, and has been approved by the Faculty of Medicine Animal Care and Use Committee (FOMIACUC, Approval No: 2014-05-07/PHAR/R/CYL) at University of Malaya. The work was reported according to ARRIVE guideline.

[2] = Acute toxicity (LD50) in ICR mice; format: in vivo; conditions: mouse, in vivo, oral, mortality within 14 days
Protocol: as §1

[3] = ORAC antioxidant activity assay
Protocol: Chemicals. Fluorescein sodium salt, AAPH (2,2′-Azobis(2-methylpropionamidine) dihydrochloride), quercetin dehydrate and trolox ((±)-6-Hydroxy-2,5,7,8-tetramethylchromane-2-carboxylic acid) were purchased from Sigma-Aldrich.
ORAC assay. ORAC (oxygen radical […]) assay was done based on procedures described previously with slight modifications. Compounds were diluted to a final concentration of 100μg/mL, with total reaction volume of 200μL. The assay was performed in a 96-well black microplate, with 25μL of samples, standard (trolox), blank (solvent/PBS) or positive control (quercetin). Subsequently, 150μL of working fluorescein solution was added to each well of assay plate. The plate was incubated at 37°C for at least 5 min. 25μL of AAPH working solution was then added to the wells, making up a total volume of 200μL. Fluorescence was recorded with excitation wavelength of 485nm and emission wavelength of 538nm. […] The values were expressed as trolox equivalent (TE).

[4] = system: human oral keratinocyte cell line (OKF6); assay: MTT cell viability assay, OKF6; format: cell-based; conditions: OKF6, 48 h treatment
Text: (§2) Human prostate cancer cell line (PC3), human malignant melanoma cell line (A375), human liver hepatocellular cell line (HepG2) and human colon adenocarcinoma cell line (HT29) were purchased from American Type Culture Collection (ATCC, Manassas, VA). The human breast cancer cell line (MCF-7) was acquired from Cell Lines Service (300273; Eppelheim, Germany), human oral keratinocyte cell line (OKF6) cells and carcinoma-derived human oral keratinocyte cells (H413) (Sigma-aldrich, Saint Louis, MO) were received from Professor Ian Charles Paterson. MCF-7, A375, HT29 and HepG2 cells were grown in Dulbecco’s Modified Eagle Medium (DMEM, Life Technologies, Inc., Rockville, MD) supplemented with 10% heat-inactivated fetal bovine serum (FBS, Sigma-Aldrich, St. Louis, MO), 1% penicillin and streptomycin. PC3 cells were grown in Roswell Park Memorial Institute medium (RPMI) supplemented with 10% heat-inactivated fetal bovine serum (FBS, Sigma-Aldrich, St. Louis, MO), 1% penicillin and streptomycin. OKF6 cells were grown in Keratinocyte Serum-Free Medium (KSFM), supplemented with 10% heat-inactivated fetal bovine serum (FBS, Sigma-Aldrich, St. Louis, MO), 1% penicillin and streptomycin. H413 cells were grown in Dulbecco's Modified Eagle Medium/Ham's F-12 (DMEM/F12) supplemented with 10% heat-inactivated fetal bovine serum (FBS, Sigma-Aldrich, St. Louis, MO), 1% penicillin and streptomycin. Cells were cultured in tissue culture flasks (Corning, USA) and were kept in an incubator at 37°C in a humidified atmosphere with 5% CO2. For experimental purposes, cells in exponential growth phase (approximately 70–80% confluency) were used.
(§3) The influence of the solvents was determined by MTT assay (Mosmann, 1983). MCF-7, A375, HT29, HepG2, PC3, OKF6 and H413 cells were treated for 48 h. On the first day, 1.0 × 10^4 cells were seeded into a 96-well plate for 24 h incubation assay. The cells were incubated overnight at 37°C in 5% CO2. On the next day, the cells were treated with a two-fold dilution series of six concentrations of the solvents, and then incubated at 37°C in 5% CO2 for 48 h. MTT solution (4,5-dimethylthiazol-2-yl-2,5-diphenyltetrazoliumbromide) was added at 2 mg/mL, and after 2 h of incubation at 37°C in 5% CO2, DMSO was added to dissolve the formazan crystals. The plates were then read in Chameleon multitechnology microplate reader (Hidex, Turku, Finland) at 570 nm absorbance. The cell viability percentage after exposure to the solvents for 48 h was calculated by the previously described method. The ratio of the absorbance of treated cells to the absorbance of DMSO-treated control cells was determined as cell viability (percentage).

[5] = system: human breast cancer cell line (MCF-7); assay: MTT cell viability assay, MCF-7; format: cell-based
Text: as §2, §3

[6] = system: human prostate cancer cell line (PC3); assay: MTT cell viability assay, PC3; format: cell-based; conditions: PC3, 48 h treatment
Text: as §2, §3

[7] = system: human malignant melanoma cell line (A375); assay: MTT cell viability assay, A375; format: cell-based
Text: as §2, §3

[8] = system: human liver hepatocellular cell line (HepG2); assay: MTT cell viability assay, HepG2; format: cell-based; conditions: HepG2, 48 h treatment
Text: as §2, §3

[9] = system: human colon adenocarcinoma cell line (HT29); assay: MTT cell viability assay, HT29; format: cell-based
Text: as §2, §3

[10] = system: carcinoma-derived human oral keratinocyte cells (H413); assay: MTT cell viability assay, H413; format: cell-based; conditions: H413, 48 h treatment
Text: as §2, §3

HepG2 = conditions: on HepG2; cited from earlier work

Row | Compound | IC50 [4] | IC50 ([5]; MCF-7, 48 h treatment) | IC50 [6] | IC50 ([7]; A375, 48 h treatment) | IC50 [8] | IC50 ([9]; HT29, 48 h treatment) | IC50 [10] | also measured
1 | 4-Hydroxy tamoxifen |  |  |  |  |  |  |  | selectivity index [1]: less than 2
2 | OCCO [Pure EG, ethylene glycol] |  |  |  |  |  |  |  | LD50 (ICR mice): 9.71 ± 1.95 g/kg
3 | OCC(O)CO [Pure Gl, glycerine] |  |  |  |  |  |  |  | LD50 at 14 days [2]: 20600 ± 2160 mg/kg
4 | OCCOCCOCCO [Pure TEG, triethylene glycol] |  |  |  |  |  |  |  | LD50 at 14 days [2]: 17000 ± 2040 mg/kg
5 | NC(N)=O [Pure U, urea] |  |  |  |  |  |  |  | LD50 (ICR mice): >20 g/kg
6 | O=c1c(O)c(-c2ccc(O)c(O)c2)oc2cc(O)cc(O)c12 [Quercetin, quercetin dehydrate] |  |  |  |  |  |  |  | net AUC ([3]; compounds at 100μg/mL): 6353346; mM of Trolox per 100μg/mL ([3]; trolox equivalent): 0.02141 mM of Trolox per 100μg/mL; μM of Trolox per 100μg/mL ([3]; trolox equivalent): 21.411 μM of Trolox per 100μg/mL
7 | C[N+](C)(C)CCO.[Cl-] [Solvent 2, choline chloride] | 26.53 ± 1.97 µg/mL | 8.95 ± 0.98 µg/mL | 11.94 ± 1.35 µg/mL | 7.584 ± 2.31 µg/mL | 14.26 ± 1.43 µg/mL | 13.41 ± 1.73 µg/mL | 19.61 ± 4.19 µg/mL | 
8 | OCC(O)CO [Solvent 3, glycerine] | 129.31 ± 8.23 µg/mL (≈ 1400 µM) | 74.73 ± 6.67 µg/mL (≈ 811 µM) | 42.38 ± 3.96 µg/mL (≈ 460 µM) | 67.65 ± 6.83 µg/mL (≈ 735 µM) | 68.85 ± 11.74 µg/mL (≈ 748 µM) | 63.80 ± 7.23 µg/mL (≈ 693 µM) | 101.02 ± 18.54 µg/mL (≈ 1100 µM) | 
9 | C[N+](C)(C)CCO.[Cl-] [Solvent 6, choline chloride] | 24.58 ± 2.81 µg/mL | 13.05 ± 2.09 µg/mL | 13.60 ± 2.94 µg/mL | 8.64 ± 1.75 µg/mL | 12.69 ± 1.63 µg/mL | 11.79 ± 0.43 µg/mL | 21.84 ± 2.65 µg/mL | 
10 | OCCO [Solvent 7, ethylene glycol] | 75.62 ± 6.33 µg/mL (≈ 1220 µM) | 53.91 ± 6.17 µg/mL (≈ 869 µM) | 32.48 ± 1.06 µg/mL (≈ 523 µM) | 40.59 ± 5.27 µg/mL (≈ 654 µM) | 44.33 ± 5.86 µg/mL (≈ 714 µM) | 43.72 ± 3.97 µg/mL (≈ 704 µM) | 62.29 ± 8.94 µg/mL (≈ 1000 µM) | 
11 | C[N+](C)(C)CCO.[Cl-] [Solvent 10, choline chloride] | 32.49 ± 3.41 µg/mL | 12.51 ± 0.71 µg/mL | 28.88 ± 2.64 µg/mL | 10.54 ± 0.34 µg/mL | 25.99 ± 1.85 µg/mL | 18.75 ± 1.65 µg/mL | 38.41 ± 4.03 µg/mL | 
12 | NC(N)=O [Solvent 11, urea] | 28.22 ± 1.05 µg/mL (≈ 470 µM) |  | 23.09 ± 5.22 µg/mL (≈ 384 µM) | 11.21 ± 1.38 µg/mL (≈ 187 µM) | 24.23 ± 4.02 µg/mL (≈ 403 µM) | 13.93 ± 2.16 µg/mL (≈ 232 µM) | 20.22 ± 1.69 µg/mL (≈ 337 µM) | 
13 | C[N+](C)(C)CCO.[Cl-] [Solvent 14, choline chloride] | 21.74 ± 1.04 µg/mL | 12.23 ± 0.39 µg/mL | 10.18 ± 0.95 µg/mL | 12.75 ± 1.23 µg/mL | 14.60 ± 2.53 µg/mL | 8.939 ± 1.43 µg/mL | 21.49 ± 0.57 µg/mL | 
14 | OCCOCCOCCO [Solvent 15, triethylene glycol] |  |  |  |  |  |  |  | IC50 ([4]; Homo sapiens, read-out: IC50): 29.8 ± 1.45 µg/mL (≈ 198 µM); IC50 ([5]; Homo sapiens, MCF7, MCF-7, 48 h treatment, read-out: IC50): 18.3 ± 2.15 µg/mL (≈ 122 µM); IC50 ([6]; Homo sapiens, read-out: IC50): 23.1 ± 1.32 µg/mL (≈ 154 µM); IC50 ([7]; Homo sapiens, A-375, A375, 48 h treatment, read-out: IC50): 14.6 ± 0.64 µg/mL (≈ 97.4 µM); IC50 ([8]; Homo sapiens, read-out: IC50): 33.9 ± 4.94 µg/mL (≈ 226 µM); IC50 ([9]; Homo sapiens, HT-29, HT29, 48 h treatment, read-out: IC50): 20.2 ± 2.75 µg/mL (≈ 135 µM); IC50 ([10]; Homo sapiens, Keratinocyte, read-out: IC50): 32.1 ± 3.1 µg/mL (≈ 214 µM)
15 | CCCCCCCCCC[N+](C)(C)CCCCCCCCCC [[DDA][Sac], didecyldimethylammonium saccharinate] |  |  |  |  |  |  |  | IC50 (HepG2): 4.8 µM
16 | C[C@@]12CCC[C@]3(C)c4cc5c(O)ccc(O)c5cc4C(=O)[C@](O)(OC1)[C@H]23 [alisiaquinol] |  |  |  |  |  |  |  | selectivity index [1]: less than 2
17 | CC/C(=C(/CCN1CCCCC1)c1ccc(O)cc1)c1ccc(O)cc1 [piperidinyl-diethylstilbestrol] |  |  |  |  |  |  |  | selectivity index [1]: less than 2

— article PMC4332636, “In Vitro and In Vivo Toxicity Profiling of Ammonium-Based Deep Eutectic Solvents” (PLoS ONE, 2015)
